Laboratory results as given in the supplement of paper PMC11451515.

How the values were obtained:
Details in all cases: 48 h
NOMO1 [1] = assay: AUC of viability dose-response curve (% viability x log10 dose units); higher = less sensitive
Outline: (§1)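 Library compounds in DMSO were applied for 48 h at 37°C at 11 threefold doses (47 μM to 0.79 nM) to medium-adapted leukemia cells in 1536-well plates holding 500 or 1000 cells/well. Luminescence from CellTiter-Glo One was normalised plate by plate against DMSO and cell-free wells. Area under the curve came from trapezoidal integration of a log-logistic fit, after scaling curves that rose above full viability and discarding those that failed quality control. The fit had four parameters and used log10 doses.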

P12-Ichikawa [2] = assay: as above
Outline: as §1

NOMO1 [3] = assay: cell viability relative to DMSO control; higher = less cytotoxic
Outline: (§2)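 NOMO1 or SEM cells were plated at 500 cells/well and P12-Ichikawa cells at 1000 cells/well in 1536-well plates (5 μl), after each leukemia line had been adapted for at least four passages in each medium. Pin dosing delivered library compounds in DMSO at 11 threefold concentrations, 47 μM to 0.79 nM. CellTiter-Glo One luminescence was read after 48 h at 37°C. Viability is reported as a per-plate percentage of DMSO wells, with cell-free wells as background.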

P12-Ichikawa [4] = assay: as above
Outline: as §2

SEM cells [5] = assay: as above
Outline: as §2

SEM cells [6] = assay: AUC of viability dose-response curve (% viability x log10 dose units); higher = less sensitive
Outline: as §1

[7] = RPMI 5 mM glucose + 10% dialyzed FBS
[8] = RPMI 5 mM glucose + 10% FBS, 0.000781 µM
[9] = RPMI 5 mM glucose + 10% FBS, 0.00234 µM
[10] = RPMI 5 mM glucose + 10% FBS, 0.00702 µM
[11] = RPMI 5 mM glucose + 10% FBS, 0.0211 µM
[12] = RPMI 5 mM glucose + 10% FBS, 0.0632 µM
[13] = RPMI 5 mM glucose + 10% FBS, 0.19 µM
[14] = RPMI 5 mM glucose + 10% FBS, 0.569 µM
[15] = RPMI 5 mM glucose + 10% FBS, 1.71 µM
[16] = RPMI 5 mM glucose + 10% FBS, 5.12 µM
[17] = RPMI 5 mM glucose + 10% FBS, 15.4 µM
[18] = RPMI 5 mM glucose + 10% FBS, 46.1 µM
[19] = RPMI 5 mM glucose + 10% dialyzed FBS, 0.000781 µM
[20] = RPMI 5 mM glucose + 10% dialyzed FBS, 0.00234 µM
[21] = RPMI 5 mM glucose + 10% dialyzed FBS, 0.00702 µM
[22] = RPMI 5 mM glucose + 10% dialyzed FBS, 0.0211 µM
[23] = RPMI 5 mM glucose + 10% dialyzed FBS, 0.0632 µM
[24] = RPMI 5 mM glucose + 10% dialyzed FBS, 0.19 µM
[25] = RPMI 5 mM glucose + 10% dialyzed FBS, 0.569 µM
[26] = RPMI 5 mM glucose + 10% dialyzed FBS, 1.71 µM
[27] = RPMI 5 mM glucose + 10% dialyzed FBS, 5.12 µM
[28] = RPMI 5 mM glucose + 10% dialyzed FBS, 15.4 µM
[29] = RPMI 5 mM glucose + 10% dialyzed FBS, 46.1 µM
[30] = HPLM + 10% dialyzed FBS, 0.000781 µM
[31] = HPLM + 10% dialyzed FBS, 0.00234 µM
[32] = HPLM + 10% dialyzed FBS, 0.00702 µM
[33] = HPLM + 10% dialyzed FBS, 0.0211 µM
[34] = HPLM + 10% dialyzed FBS, 0.0632 µM
[35] = HPLM + 10% dialyzed FBS, 0.19 µM
[36] = HPLM + 10% dialyzed FBS, 0.569 µM
[37] = HPLM + 10% dialyzed FBS, 1.71 µM
[38] = HPLM + 10% dialyzed FBS, 5.12 µM
[39] = HPLM + 10% dialyzed FBS, 15.4 µM
[40] = HPLM + 10% dialyzed FBS, 46.1 µM

## Cc1coc2c1C(=O)C(=O)c1c-2ccc2c(C)cccc12
NOMO1 [1]; HPLM + 10% dialyzed FBS
  AUC of viability dose-response curve: 443
NOMO1 [1]; RPMI 5 mM glucose + 10% FBS
  AUC of viability dose-response curve: 451
NOMO1 [1]; [7]
  AUC of viability dose-response curve: 460
P12-Ichikawa [2]; HPLM + 10% dialyzed FBS
  AUC of viability dose-response curve: 454
P12-Ichikawa [2]; RPMI 5 mM glucose + 10% FBS
  AUC of viability dose-response curve: 476
P12-Ichikawa [2]; [7]
  AUC of viability dose-response curve: 446
NOMO1 [3]; [8]
  cell viability: 126%
NOMO1 [3]; [9]
  cell viability: 113%
NOMO1 [3]; [10]
  cell viability: 125%
NOMO1 [3]; [11]
  cell viability: 110%
NOMO1 [3]; [12]
  cell viability: 112%
NOMO1 [3]; [13]
  cell viability: 128%
NOMO1 [3]; [14]
  cell viability: 118%
NOMO1 [3]; [15]
  cell viability: 114%
NOMO1 [3]; [16]
  cell viability: 89.4%
NOMO1 [3]; [17]
  cell viability: 103%
NOMO1 [3]; [18]
  cell viability: 91.2%
NOMO1 [3]; [19]
  cell viability: 116%
NOMO1 [3]; [20]
  cell viability: 111%
NOMO1 [3]; [21]
  cell viability: 111%
NOMO1 [3]; [22]
  cell viability: 113%
NOMO1 [3]; [23]
  cell viability: 117%
NOMO1 [3]; [24]
  cell viability: 108%
NOMO1 [3]; [25]
  cell viability: 106%
NOMO1 [3]; [26]
  cell viability: 130%
NOMO1 [3]; [27]
  cell viability: 97.7%
NOMO1 [3]; [28]
  cell viability: 105%
NOMO1 [3]; [29]
  cell viability: 106%
P12-Ichikawa [4]; [8]
  cell viability: 120%
P12-Ichikawa [4]; [9]
  cell viability: 123%
P12-Ichikawa [4]; [10]
  cell viability: 107%
P12-Ichikawa [4]; [11]
  cell viability: 112%
P12-Ichikawa [4]; [12]
  cell viability: 128%
P12-Ichikawa [4]; [13]
  cell viability: 120%
P12-Ichikawa [4]; [14]
  cell viability: 114%
P12-Ichikawa [4]; [15]
  cell viability: 123%
P12-Ichikawa [4]; [16]
  cell viability: 111%
P12-Ichikawa [4]; [17]
  cell viability: 121%
P12-Ichikawa [4]; [18]
  cell viability: 115%
P12-Ichikawa [4]; [19]
  cell viability: 125%
P12-Ichikawa [4]; [20]
  cell viability: 116%
P12-Ichikawa [4]; [21]
  cell viability: 124%
P12-Ichikawa [4]; [22]
  cell viability: 117%
P12-Ichikawa [4]; [23]
  cell viability: 116%
P12-Ichikawa [4]; [24]
  cell viability: 112%
P12-Ichikawa [4]; [25]
  cell viability: 117%
P12-Ichikawa [4]; [26]
  cell viability: 109%
P12-Ichikawa [4]; [27]
  cell viability: 109%
P12-Ichikawa [4]; [28]
  cell viability: 103%
P12-Ichikawa [4]; [29]
  cell viability: 108%
SEM cells [5]; [8]
  cell viability: 91.4%
SEM cells [5]; [9]
  cell viability: 79.7%
SEM cells [5]; [10]
  cell viability: 107%
SEM cells [5]; [11]
  cell viability: 12.8%
SEM cells [5]; [12]
  cell viability: 91.3%
SEM cells [5]; [13]
  cell viability: 80.1%
SEM cells [5]; [14]
  cell viability: 90.3%
SEM cells [5]; [15]
  cell viability: 78%
SEM cells [5]; [16]
  cell viability: 72.8%
SEM cells [5]; [17]
  cell viability: 54%
SEM cells [5]; [18]
  cell viability: 48.6%
SEM cells [5]; [19]
  cell viability: 112%
SEM cells [5]; [20]
  cell viability: 117%
SEM cells [5]; [21]
  cell viability: 135%
SEM cells [5]; [22]
  cell viability: 19.3%
SEM cells [5]; [23]
  cell viability: 112%
SEM cells [5]; [24]
  cell viability: 115%
SEM cells [5]; [25]
  cell viability: 98%
SEM cells [5]; [26]
  cell viability: 102%
SEM cells [5]; [27]
  cell viability: 106%
SEM cells [5]; [28]
  cell viability: 86.4%
SEM cells [5]; [29]
  cell viability: 75.3%

## CCC[C@H](NC(=O)[C@@H]1[C@H]2CCC[C@H]2CN1C(=O)[C@@H](NC(=O)[C@@H](NC(=O)c1cnccn1)C1CCCCC1)C(C)(C)C)C(=O)C(=O)NC1CC1
NOMO1 [1]; HPLM + 10% dialyzed FBS
  AUC of viability dose-response curve: 461
NOMO1 [1]; RPMI 5 mM glucose + 10% FBS
  AUC of viability dose-response curve: 474
NOMO1 [1]; [7]
  AUC of viability dose-response curve: 472
P12-Ichikawa [2]; HPLM + 10% dialyzed FBS
  AUC of viability dose-response curve: 474
P12-Ichikawa [2]; RPMI 5 mM glucose + 10% FBS
  AUC of viability dose-response curve: 473
P12-Ichikawa [2]; [7]
  AUC of viability dose-response curve: 476
SEM cells [6]; HPLM + 10% dialyzed FBS
  AUC of viability dose-response curve: 454
SEM cells [6]; RPMI 5 mM glucose + 10% FBS
  AUC of viability dose-response curve: 469
SEM cells [6]; [7]
  AUC of viability dose-response curve: 470
SEM cells [5]; [30]
  cell viability: 106%
SEM cells [5]; [31]
  cell viability: 99.8%
SEM cells [5]; [32]
  cell viability: 106%
SEM cells [5]; [33]
  cell viability: 106%
SEM cells [5]; [34]
  cell viability: 111%
SEM cells [5]; [35]
  cell viability: 118%
SEM cells [5]; [36]
  cell viability: 118%
SEM cells [5]; [37]
  cell viability: 119%
SEM cells [5]; [38]
  cell viability: 127%
SEM cells [5]; [39]
  cell viability: 111%
SEM cells [5]; [40]
  cell viability: 116%

## Cc1cc(Nc2cc(NC(=O)c3c(Cl)cccc3Cl)ccn2)nc(N)n1
NOMO1 [1]; HPLM + 10% dialyzed FBS
  AUC of viability dose-response curve: 373
NOMO1 [1]; RPMI 5 mM glucose + 10% FBS
  AUC of viability dose-response curve: 391
NOMO1 [1]; [7]
  AUC of viability dose-response curve: 359
P12-Ichikawa [2]; HPLM + 10% dialyzed FBS
  AUC of viability dose-response curve: 364
P12-Ichikawa [2]; RPMI 5 mM glucose + 10% FBS
  AUC of viability dose-response curve: 364
P12-Ichikawa [2]; [7]
  AUC of viability dose-response curve: 346
SEM cells [6]; HPLM + 10% dialyzed FBS
  AUC of viability dose-response curve: 368
SEM cells [6]; RPMI 5 mM glucose + 10% FBS
  AUC of viability dose-response curve: 391
SEM cells [6]; [7]
  AUC of viability dose-response curve: 341
SEM cells [5]; [30]
  cell viability: 112%
SEM cells [5]; [31]
  cell viability: 123%
SEM cells [5]; [32]
  cell viability: 126%
SEM cells [5]; [33]
  cell viability: 124%
SEM cells [5]; [34]
  cell viability: 128%
SEM cells [5]; [35]
  cell viability: 128%
SEM cells [5]; [36]
  cell viability: 113%
SEM cells [5]; [37]
  cell viability: 61.3%
SEM cells [5]; [38]
  cell viability: 40.9%
SEM cells [5]; [39]
  cell viability: 37.9%
SEM cells [5]; [40]
  cell viability: 40.2%

## OC[C@H]1O[C@@H](O[C@@H]2O\C=C(/[C@H]3C\C=C(CO)/[C@@H]23)C(O)=O)[C@H](O)[C@@H](O)[C@@H]1O
NOMO1 [1]; HPLM + 10% dialyzed FBS
  AUC of viability dose-response curve: 453
NOMO1 [1]; RPMI 5 mM glucose + 10% FBS
  AUC of viability dose-response curve: 449
NOMO1 [1]; [7]
  AUC of viability dose-response curve: 455
P12-Ichikawa [2]; HPLM + 10% dialyzed FBS
  AUC of viability dose-response curve: 449
P12-Ichikawa [2]; RPMI 5 mM glucose + 10% FBS
  AUC of viability dose-response curve: 468
P12-Ichikawa [2]; [7]
  AUC of viability dose-response curve: 418
SEM cells [6]; HPLM + 10% dialyzed FBS
  AUC of viability dose-response curve: 452
SEM cells [6]; RPMI 5 mM glucose + 10% FBS
  AUC of viability dose-response curve: 475
SEM cells [6]; [7]
  AUC of viability dose-response curve: 462
